According to EP0639197B1, “EXCITATORY AMINO ACID ANTAGONISTS” (GUILFORD PHARMACEUTICALS INC., priority 1990, dated 1992):

How the values were obtained:
[1] = Inhibition of NMDA-induced seizures after i.c.v. administration; type: in vivo, male CF-1 mice; settings: mouse, in vivo, icv or intrathecal; ratio of rotorod TD50 to NMDA-seizure ED50; ICV administration
Experimental: (§1) Anticonvulsant studies: The potency of the isomers of APCA to inhibit NMDA-induced seizures was evaluated using male CF-1 mice. All drugs were dissolved in isotonic saline and the pH adjusted to neutrality using NaOH. The test compounds were injected intracerebroventricularly (i.c.v.) in a final volume of […]. N-Methyl-D-aspartate (250mg/kg of body weight) was dissolved in saline (1% v/w of body weight) and injected intraperitoneally (i.p.) 15 minutes following the administration of the test agent. […] NMDA-induced seizures were defined as presence of tonic/clonic activity accompanied by hindlimb extension and death. Rotorod: Animals used for seizure studies were evaluated for motor impairment using the rotorod test. Before use all animals were tested for their ability to maintain equilibrium for 60 seconds on a 1-inch knurled bar rotating at a speed of 6 to 7 rpm. Each animal was given three separate trials. Animals performing the task in any of the three trials were used for further study.

NMDA-induced seizures = experiment: as above; type: in vivo, male CF-1 mice; settings: for ED50: Mus musculus, central, potency to inhibit NMDA-induced seizures, ICV administration 15 minutes before NMDA 250mg/kg i.p., mixtures enriched in the stated isomer, less than about 95% pure
Experimental: as §1

[2] = Rotorod test for motor impairment after i.c.v. administration; parameters: species or system male CF-1 mice; settings: mouse, in vivo, icv or intrathecal; potency to impair rotorod performance; tested 10 minutes after i.c.v. administration; enriched mixtures, less than about 95% pure
Experimental: as §1
Animals were tested for impairment 10 minutes after i.c.v. administration of the test agent and 5 minutes before administration of the seizure-inducing agent. Each animal was tested on a maximum of three trials; completion of any one of the trials was screened as passing.

NMDA receptors = experiment: Inhibition of specific binding of [3H]CGS-19755 to rat forebrain membranes; settings: for IC50: [3H]CGS-19755 4.62 x 10^-9 M, rat forebrain membranes, 20min, 23 C, enriched mixtures, less than about 95% pure
Experimental: Binding studies: The potency of compounds to inhibit the specific binding of [^3H]CGS-19755 (specific activity 50.5 Ci/mmol, New England Nuclear, Boston, MA) to NMDA receptors was performed as described by Ferkany et al., (J. Pharmacology and Experimental Therapeutics, 1989, 250:100-109). Briefly, animals were sacrificed by decapitation, the forebrain removed immediately and the "buffy coat" prepared as described by Enna and Snyder (Enna, S. and Snyder, S.H., Molecular Pharmacology, 1977, 13:422-433). Crude synaptic membranes were stored frozen (-20 °C) until used. On the day of the assay, membranes were thawed to room temperature and homogenized in 20 vol (w/v) of assay buffer. The homogenate was centrifuged (48,000 x g; 10min; 4 °C), the supernatant decanted and the pellet resuspended as before. The procedure was repeated until the tissue had been washed 4 times to remove endogenous inhibitors.
For assay, the final pellet was resuspended in sufficient buffer (Tris HCl, 0.05M, pH 7.1, 23 °C) to yield a tissue concentration of 0.2mg of protein per ml. Two-milliliter portions of the suspension were added in duplicate to tubes containing ligand (final concentration = 4.62 x 10^- ^9 M) and the compound of interest ([…]). After an incubation of 20min (23 °C), the reaction was terminated by centrifugation, the supernatant was decanted and the pellets washed rapidly and superficially with 2 x 2.5ml of ice-cold buffer. Tissue was solubilized in Protosol (0.5 ml, New England Nuclear, Boston, MA) and after the addition of scintillant, radioactivity was determined using standard procedures.
Non specific binding was determined using L-glutamate at a final concentration of 10^-3 M. Routinely, IC50s were determined using 8-12 concentrations of inhibitor.

O=C(O)C1CN(CCCP(=O)(O)O)CCN1 (racemic) [(±) CPP, 4-(3-phosphonopropyl)-2-piperazine carboxylic acid, reference compound]
selectivity ratio [1]: 4.5
ED50 (NMDA-induced seizures): 2.2 mg/kg
TD50 at 10 min [2]: 10 mg/kg
IC50 (NMDA receptors): 190 ± 15 nM

O=C(O)[C@H]1C[C@@H](CP(=O)(O)O)CCN1 (relative stereo) [CGS-19755, cis-4-(phosphonomethyl)-2-piperidinecarboxylic acid, reference compound]
selectivity ratio [1]: 6.4
ED50 (NMDA-induced seizures): 2.64 mg/kg
TD50 at 10 min [2]: 17 mg/kg

N[C@H](C[C@H]1CCCC[C@H]1CCP(=O)(O)O)C(=O)O (single isomer, unassigned) [cis isomer A, 2-amino-4,5-(1,2-cyclohexyl)-7-phosphonoheptanoic acid]
selectivity ratio [1]: 30.5
ED50 (NMDA-induced seizures): 1.05 mg/kg
fold more potent than the next most potent isomer (NMDA-induced seizures; in vivo effects of Table 1): at least 25 fold
TD50 at 10 min [2]: 32 mg/kg
IC50 (NMDA receptors): 270 ± 12 nM
fold more potent than cis isomer C, the next most potent isomer (NMDA receptors; binding data of Table 2): approximately 8 fold
